In assay [1] the target is T1, c-Myc353-437 (monomeric c-Myc bHLH-ZIP) (Homo sapiens, UniProt P01106).
T1 construct: recombinant monomeric c Myc bHLH-ZIP (amino acids 353-437); 6xHis with TEV site (N, cleaved yes); made in house; host or cells: E. coli BL21DE3(pLysS)
In words: Fluorescence polarization titration, c-Myc bHLH-ZIP binding. The conditions noted are these: for Kd: Table 1; for c-Myc binding affinity (in words): FP. An excerpt: A c-Myc353-437 full-length bHLH-ZIP domain and its truncated version c-Myc390-439 were produced from the c-Myc/pET SKB3 construct, kindly supplied by Dr. S. K. Nair (University of Illinois, Urbana-Champaign), by insertion into the pET151D vector, encoding an N-terminal hexahistidine (6× His), separated by a TEV protease digestion site, with the TOPO® ligation system, and over-expressed in E. coli BL21DE3(pLysS). The 6× His tagged human Max isoform p21, with low homodimerization affinity^70, cloned into the pQE10 vector (Qiagen, Inc.), was over-expressed in E. coli M15(pRep4). Bacterial cultures were grown at 37° C. in LB medium to OD600≈0.8, then induced with 0.5 mM IPTG for 5 hours. Proteins were purified by Ni-agarose chromatography with a pH gradient elution. The 6× His tag of c-MYC353-437 and c-Myc390-439 was cleaved using TEV protease (the TEV protease was expressed in a pET24 vector [courtesy of S. K. Nair] and purified by Ni-agarose chromatography under native conditions). All the proteins were further purified by HPLC and lyophilized. Protein concentrations were determined by measurement of OD280. The synthetic peptide c-Myc363-381 is described in Follis, A. V., Hammoudeh, D. I., Wang, H., Prochownik, E & Metallo, S. J. Structural rationale for the coupled binding and unfolding of the c-Myc oncoprotein by small molecules. Chemistry & Biology 15, 1149-1155 (2008).
Samples were analyzed in a Photon Technology International QuantaMaster fluorimeter (Birmingham, N.J.) equipped with polymer sheet polarizers. Titration experiments were performed upon serial dilution of 1:1 equimolar solution of inhibitor and either c-Myc353-437, c-Myc390-439 or c-Myc363-381 in a 1×PBS buffer (137 mM NaCl, 2.7 mM KCl, 4.3 mM Na2HPO4, 1.4 mM KH2PO4, pH=7.4), 5% DMSO, over concentrations ranging between 200 μM and 1.5 nM. Excitation and emission wavelengths were independently determined for each inhibitor. Reported data represent the average of at least three independent experiments. Data were fit to a quadratic equation derived from the thermodynamic expression of binding equilibrium:
[formula] where [C]0 represents the total concentration of inhibitor and of c-Myc peptide. The value of KD was determined from the experimental polarization data by fitting to Eq. 2 using KaleidaGraph (Synergy Software, Reading, Pa.) where pol0 is the polarization in the absence of binding and Δpol is the total change in polarization (Park, S. H. & Raines, R. T. Fluorescence polarization assay to quantify protein-protein interactions. Methods in Molecular Biology 261, 161-6 (2004)).
[formula] Due to the very tight binding of some of the tested compounds, it was impossible to perform a full binding titration with an acceptable fluorescence intensity, therefore the polo parameter was experimentally determined from samples of each compound in the absence of c-Myc353-437 at a concentration of 25 μM. Binding specificity experiments were performed by monitoring the FP of 10 μM inhibitors solutions in the above-described buffer in the presence of equimolar p21 Max. […] Circular Dichroism.
Also in this case the c-Myc binding affinity was little affected by the introduction of the linker chain (Table 1, FIG. 11).
We then measured the affinity of the synthesized bivalent inhibitors, by monitoring the FP of the compounds nitrobenzofurazan moiety. […] The estimated free energy of binding of the bivalent compounds was roughly proportional to the sum of those of their monovalent components. In the thermodynamic analysis of multivalent binding a ΔG^s term is used to relate the free energy of binding of a multivalent compound to the sum of those of its monovalent components. This term implies the diverse energy contributions resulting from the linking of independent binding components. The ΔG^s term generally constitutes a negative contribution to the binding affinity of distinct binding components connected by a flexible linker to a given target.
(In general: Fluorescence polarisation rises when a labelled molecule tumbles more slowly, as on binding a larger partner.)

Assay [2] concerns Daudi Burkitt lymphoma cells. In words: Burkitt's lymphoma cell growth inhibition (MTT assay). The class given is cell-based. The note with it: Homo sapiens, Table 3, MTT, third day, read-out: Growth inhibition BL. As to the method:
(§1) These assays were performed as previously described using HL60 promyelocytic leukemia cells and Daudi Burkitt lymphoma cells, each of which expresses high levels of endogenous c-Myc (Wang, H. et al. Mol. Cancer Ther. 6, 2399-408 (2007)). As controls for non-specific effects of bivalent compounds, we utilized a c-Myc nulllizygous strain of rat fibroblasts (Mateyak, M. K., et al. Cell Growth & Differentiation 8, 1039-48 (1997)) expressing the c-Myc target genes MT-MC1 and HMGAIb, each of which restores a normal growth rate as well as the TGR1 fibroblast line from which the nullizygous line was derived (Wang, H. et al. Mol. Cancer Ther. 6, 2399-408 (2007); Mateyak, M. K., et al. Cell Growth & Differentiation 8, 1039-48 (1997); and Rothermund, K. et al. Cancer Research 65, 2097-107 (2005)). […] Cell quantification was performed on triplicate wells over the ensuing 4-5 days without changing the medium by measuring the absorbance at 490 nm using the MTT assay (Mosmann, T. Journal of Immunological Methods 65, 55-63 (1983)). IC50 values were estimated from linear regression of the inhibition data at the third day of each experiment.
(§2) We evaluated the efficacy of the linked compounds 11, 12, 13, 16, 17, 18 in inhibiting the c-Myc-Max interaction by measuring the binding of a target DNA sequence (E-Box) by the protein heterodimers in an electrophoretic mobility shift assay (EMSA). […] A fluorinated substitute of 14, 24, the choice of which was based upon the results of structure activity relationship studies described in Wang, H. et al. (Mol. Cancer Ther. 6, 2399-408 (2007)), was employed at this purpose (Muller, K., et al. Science 317, 1881-6 (2007) and Kirk, K. L. Current Topics in Medicinal Chemistry 6, 1447-56 (2006)).
Background: Formazan colour is commonly taken as a measure of viable cells.

Assay [3] deals with HL60 promyelocytic leukemia cells. In words: HL60 cell growth inhibition (MTT assay). The note with it: Homo sapiens, HL-60; Table 3; MTT, third day; read-out: Growth inhibition HL60. Type of assay: cell-based. As for the experimental part: as §1, §2
[4] abbreviates: FP titration with c-Myc353-437, 1xPBS pH 7.4, 5% DMSO, read-out: KD (c-Myc affinity, monovalent).

Results on 8 compounds are retold here after US8637556B2, “Linked Myc-max small molecule inhibitors” (University of Pittsburgh—Of the Commonwealth System of …, priority 2009, dated 2014).

Read-outs that look alike come from different tables or passages of the source. A value given as a limit tells only on which side of the number the result lay.

T1 sequence (P01106 368-452): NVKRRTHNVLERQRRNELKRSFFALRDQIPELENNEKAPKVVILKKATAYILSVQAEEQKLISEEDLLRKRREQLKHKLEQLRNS

With `O=C(O)c1ccc(Nc2ccc([N+](=O)[O-])c3nonc23)cc1` [compound 7], the Kd in assay [1] (setting [4]) stood at 3 ± 1 µM. In addition, the “c-Myc binding, times tighter than 5 and 6” value in assay [1] (relative to compounds 5 and 6) is recorded as roughly 5 times.

With `O=C(O)c1ccccc1Nc1ccc([N+](=O)[O-])c2nonc12` [compound 5], in assay [1] (setting [4]), the Kd stood at 13 ± 5 µM.

With `O=C(O)c1cccc(Nc2ccc([N+](=O)[O-])c3nonc23)c1` [compound 6], the Kd in assay [1] (setting [4]) turned out to be 16 ± 6 µM.

Take `CCc1ccc(C=C2SC(=O)N(CCCCNC(=O)c3ccc(Nc4ccc([N+](=O)[O-])c5nonc45)cc3)C2=O)cc1` [compound 21]: the IC50 in assay [2] lay in the range of 14 to 16 µM; in assay [3], 7 to 9 µM. For the same compound, the Kd in assay [1] (FP of nitrobenzofurazan moiety, c-Myc353-437, read-out: KD (c-Myc affinity, bivalent)) came to 0.004 ± 0.001 µM.

For `CN(C)c1ccc([N+](=O)[O-])c2nonc12` [compound 4], in assay [1], the “c-Myc binding affinity (in words)” value was “complete loss of binding affinity”. Also, the Kd in assay [1] (setting [4]) is greater than 200 µM.

Regarding `O=[N+]([O-])c1ccc(Nc2ccccc2)c2nonc12` [compound 3], the “c-Myc binding affinity (in words)” value in assay [1] was “minor loss of c-Myc affinity”. Moreover, in assay [1] (setting [4]), the Kd came to 7 ± 1 µM.

On to `CCc1ccc(C=C2SC(=S)NC2=O)cc1` [compound 2, (Z,E)-5-(4-ethyl-benzylidene)-2-thioxo-thiazolidin-4-one, reference compound], for which the IC50 was determined as 40 µM in assay [2] and 50 µM in assay [3].

In the case of `CC(=O)NCCCCCNC(=O)c1ccc(C=C2SC(=S)NC2=O)cc1` [compound 10], the Kd in assay [1] (setting [4]) is 90 ± 40 µM.
